Key:
A. oryzae laccase [1] = test: Laccase activity assay (L-DOPA substrate), A. oryzae; type: biochemical, Aspergillus oryzae; settings: Ki from IC50 by Cheng–Prusoff, 0.01% Triton X-100
Description: (§1) Enzyme activity with inhibitors—All chemical reagents were purchased from either Tokyo Chemical Industry (Tokyo, Japan), ChemBridge (San Diego, CA, USA), or Sigma-Aldrich (St. Louis, MO, USA). The reaction mixture for the tyrosinase assay comprised 20 nM tyrosinase and 500 µM L-DOPA in phosphate-buffered saline. The solution for the ceruloplasmin activity assay comprised 20 nM ceruloplasmin and 500 µM N,N-dimethyl-p-phenylenediamine (DMPD) in 100 mM of sodium acetate buffer at a pH of 5.5. The DBH activity assay was conducted in a reaction mixture containing 10 nM DBH, 500 µM DMPD, and 500 µM tyramine. The solution for the laccase activity assay comprised either 150 nM T. versicolor laccase or 350 nM A. oryzae laccase and 500 µM L-DOPA in 100 mM sodium phosphate buffer with a pH of 5.5. All the solutions included 0.01% Triton X-100 and 5% DMSO in the absence or presence of the inhibitor. After the addition of inhibitors, the solutions were incubated for 15 min at 30 °C. The absorbances of tyrosinase, laccase, ceruloplasmin, and DBH were measured at 475, 475, 550, and 515 nm, respectively, after the addition of substrate to the mixture solution, in a time-dependent manner. […] The Cheng–Prusoff equation with Km was employed to convert the IC50 value into the inhibitory constant, Ki, for each inhibitor [46].

A. oryzae laccase [2] = test: Enzyme inhibitory kinetics, A. oryzae laccase; type: biochemical, Aspergillus oryzae; settings: read-out: ** Ki, simulated inhibitory constant by nonlinear fitting assuming competitive inhibition
Description: (§2) Enzyme inhibitory kinetics—The velocities during the generation of the product for each enzyme were measured by varying the substrate and inhibitor concentrations. Simultaneous and nonlinear fitting of all profiles in an inhibitor minimized the Χ^2 value of the differences of theoretical and experimental values in the Michaelis–Menten equation, expressed with the competitive, uncompetitive, noncompetitive, and mixed models. […] The reduced Χ^2 values between the models were compared based on F-statistic to select the most appropriate model. All fittings and statistical analyses were conducted using MATLAB from MathWorks (Natick, MA, USA).

laccases [3] = test: Laccase activity assay, statements on both laccases together; type: biochemical, T. versicolor and A. oryzae; settings: 50 μM
Description: as §1

laccases [4] = test: Enzyme inhibitory kinetics, laccases from both sources together; type: biochemical, T. versicolor and A. oryzae; settings: nonlinear fitting of enzyme kinetics
Description: as §2

mushroom tyrosinase [5] = target: T1, mushroom tyrosinase (Agaricus bisporus, UniProt C7FF04); test: Tyrosinase enzyme activity assay (L-DOPA substrate); type: biochemical
T1 sequence (C7FF04 1-392): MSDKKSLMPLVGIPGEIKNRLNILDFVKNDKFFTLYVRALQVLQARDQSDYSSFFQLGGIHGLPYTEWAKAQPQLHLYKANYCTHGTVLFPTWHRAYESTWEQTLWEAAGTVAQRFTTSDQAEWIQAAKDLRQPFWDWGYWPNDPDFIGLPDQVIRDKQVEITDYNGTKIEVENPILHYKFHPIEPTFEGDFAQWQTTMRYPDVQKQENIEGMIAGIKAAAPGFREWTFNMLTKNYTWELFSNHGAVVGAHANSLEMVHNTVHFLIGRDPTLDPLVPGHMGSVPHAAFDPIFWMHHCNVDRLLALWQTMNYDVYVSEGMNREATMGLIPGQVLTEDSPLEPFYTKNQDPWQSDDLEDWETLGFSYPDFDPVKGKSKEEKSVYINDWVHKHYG
Description: as §1

mushroom tyrosinase [6] = target: T1, mushroom tyrosinase; parameters: method as in PMID 24074025; settings: cited from earlier work
[7] = target: T2, dopamine-β-hydroxylase (DBH) (Homo sapiens, UniProt P09172); test: DBH activity assay (DMPD, tyramine); type: biochemical; settings: for Ki: Ki from IC50 by Cheng–Prusoff
T2 construct: purchased
T2 sequence (P09172 1-617): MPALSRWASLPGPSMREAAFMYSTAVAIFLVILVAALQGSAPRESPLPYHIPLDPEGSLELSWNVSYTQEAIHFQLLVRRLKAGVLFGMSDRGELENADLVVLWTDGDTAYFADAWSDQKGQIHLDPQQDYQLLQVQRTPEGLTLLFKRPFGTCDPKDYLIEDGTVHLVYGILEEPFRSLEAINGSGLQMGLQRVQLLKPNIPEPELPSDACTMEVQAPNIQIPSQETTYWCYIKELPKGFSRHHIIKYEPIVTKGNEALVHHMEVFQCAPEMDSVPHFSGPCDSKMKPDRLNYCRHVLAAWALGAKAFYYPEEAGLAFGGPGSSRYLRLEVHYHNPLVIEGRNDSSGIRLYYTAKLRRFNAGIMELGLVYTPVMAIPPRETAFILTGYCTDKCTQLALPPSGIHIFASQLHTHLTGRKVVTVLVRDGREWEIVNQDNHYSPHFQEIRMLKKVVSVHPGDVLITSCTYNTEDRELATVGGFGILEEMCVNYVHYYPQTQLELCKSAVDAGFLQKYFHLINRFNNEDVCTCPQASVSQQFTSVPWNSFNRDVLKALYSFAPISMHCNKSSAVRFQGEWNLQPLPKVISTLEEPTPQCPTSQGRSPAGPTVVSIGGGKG
Description: as §1

ceruloplasmin = target: T3, ceruloplasmin (Homo sapiens, UniProt P00450); test: Ceruloplasmin activity assay (DMPD substrate); type: biochemical; settings: Ki from IC50 by Cheng–Prusoff
T3 construct: purchased
T3 sequence (P00450 20-1065): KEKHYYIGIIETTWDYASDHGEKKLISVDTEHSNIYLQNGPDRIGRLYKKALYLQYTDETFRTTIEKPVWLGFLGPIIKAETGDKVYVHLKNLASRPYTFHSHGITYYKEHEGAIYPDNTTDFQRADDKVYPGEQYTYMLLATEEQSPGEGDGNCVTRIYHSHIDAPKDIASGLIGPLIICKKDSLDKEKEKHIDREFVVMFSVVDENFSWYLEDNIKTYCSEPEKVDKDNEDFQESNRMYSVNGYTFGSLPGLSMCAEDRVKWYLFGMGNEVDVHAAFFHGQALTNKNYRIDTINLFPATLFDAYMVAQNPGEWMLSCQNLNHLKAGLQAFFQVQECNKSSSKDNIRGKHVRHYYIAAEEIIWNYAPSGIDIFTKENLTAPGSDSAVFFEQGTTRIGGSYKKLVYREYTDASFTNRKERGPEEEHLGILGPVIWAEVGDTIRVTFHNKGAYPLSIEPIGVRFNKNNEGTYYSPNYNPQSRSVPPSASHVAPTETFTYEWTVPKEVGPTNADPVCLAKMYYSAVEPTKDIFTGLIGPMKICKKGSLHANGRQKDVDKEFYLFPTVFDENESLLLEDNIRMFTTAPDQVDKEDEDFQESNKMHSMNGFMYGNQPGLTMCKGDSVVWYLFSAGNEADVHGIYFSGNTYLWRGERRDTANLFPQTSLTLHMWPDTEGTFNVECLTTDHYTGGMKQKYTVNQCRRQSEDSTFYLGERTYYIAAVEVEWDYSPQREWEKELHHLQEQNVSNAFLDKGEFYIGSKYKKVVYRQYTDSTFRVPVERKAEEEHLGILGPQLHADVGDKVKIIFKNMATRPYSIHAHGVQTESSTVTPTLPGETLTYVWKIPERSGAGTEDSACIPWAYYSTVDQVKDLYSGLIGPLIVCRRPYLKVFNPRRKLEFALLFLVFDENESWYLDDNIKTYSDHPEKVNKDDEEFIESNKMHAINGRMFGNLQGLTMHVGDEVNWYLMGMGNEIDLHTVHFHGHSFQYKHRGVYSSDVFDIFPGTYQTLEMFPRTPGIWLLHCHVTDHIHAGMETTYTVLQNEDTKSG
Description: as §1

T. versicolor laccase = target: T4, T. versicolor laccase (Trametes versicolor, UniProt Q12718); test: Laccase activity assay (L-DOPA substrate), T. versicolor; type: biochemical; settings: Ki from IC50 by Cheng–Prusoff, 0.01% Triton X-100
T4 sequence (Q12718 21-519): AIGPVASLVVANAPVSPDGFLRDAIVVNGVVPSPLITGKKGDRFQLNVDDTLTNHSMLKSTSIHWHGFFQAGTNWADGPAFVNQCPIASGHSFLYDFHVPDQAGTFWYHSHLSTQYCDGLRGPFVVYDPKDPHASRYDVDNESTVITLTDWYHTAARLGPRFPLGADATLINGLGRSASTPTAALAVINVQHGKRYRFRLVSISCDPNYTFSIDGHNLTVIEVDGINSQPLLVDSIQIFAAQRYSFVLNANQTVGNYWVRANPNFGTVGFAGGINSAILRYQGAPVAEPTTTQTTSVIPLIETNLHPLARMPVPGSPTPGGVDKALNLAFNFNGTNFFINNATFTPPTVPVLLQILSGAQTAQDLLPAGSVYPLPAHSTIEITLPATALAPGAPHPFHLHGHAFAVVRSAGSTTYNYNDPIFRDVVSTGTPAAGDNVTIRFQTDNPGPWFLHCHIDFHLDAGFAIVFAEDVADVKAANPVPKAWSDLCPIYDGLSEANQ
Description: as §1

Compound | Ki (A. oryzae laccase [1]) | Ki (A. oryzae laccase [2]) | inhibitory activities against laccases (laccases [3]) | Mechanism of inhibition (laccases [4]) | inhibition of DBH activity [7] | Ki [7] | also measured
S=c1[nH]cnc2nc[nH]c12 [compound 1, mercaptopurine] | 15.1 ± 4.6 µM | 17.2 µM | substantial inhibitory activities | Competitive |  |  | Ki (A. oryzae laccase [1]; listed as mercaptopurine): 15 µM; Mechanism of inhibition (laccases [4]; listed as mercaptopurine): competitive mode
Cn1cc[nH]c1=S [compound 16, methimazole] |  |  |  |  |  |  | inhibition of DBH at single concentration ([7]; 50 µM): neither methimazole nor other thione-containing test molecules significantly inhibited DBH
NC(=S)Nc1ccccc1 [compound 24, phenylthiourea (PTU)] | > 1000 µM |  |  |  |  |  | 
O=c1cccccc1O [compound 26, tropolone] | > 1000 µM |  |  |  | significantly decreased DBH activity | 9.3 ± 5.5 µM | 
[N-]=[N+]=[N-].[Na+] [compound 27, sodium azide] | 3.1 ± 1.7 µM |  |  |  | moderate inhibition | 70.6 ± 11.6 µM | Ki (ceruloplasmin): 1.6 ± 0.3 µM; Ki (T. versicolor laccase): 4.2 ± 1.3 µM; Ki (T. versicolor laccase; listed as sodium azide): 4 µM; Ki (A. oryzae laccase [1]; listed as sodium azide): 3 µM
[NH4+].[NH4+].[SH-].[SH-].[S]=[Mo]=[S] [compound 28, ammonium tetrathiomolybdate (ATMD)] | 10.5 ± 2.5 µM |  |  |  | significantly decreased DBH activity | 23.7 ± 2.7 µM | Ki (ceruloplasmin): 10.9 ± 1.4 µM; Ki (T. versicolor laccase): 12.3 ± 1.3 µM; Ki (T. versicolor laccase; listed as AMTD): 12 µM; Ki (A. oryzae laccase [1]; listed as AMTD): 10 µM

Further lines, with some results ahead:

Ki (A. oryzae laccase [1]) | Ki (A. oryzae laccase [2]) | inhibitory activities against laccases (laccases [3]) | Mechanism of inhibition (laccases [4]) | Compound | inhibition of DBH activity [7] | Ki [7] | also measured
21.2 ± 1.7 µM | 26.2 µM | substantial inhibitory activities | Competitive | Nc1nc2nc[nH]c2c(=S)[nH]1 [compound 2, thioguanine] |  |  | Ki (A. oryzae laccase [1]; listed as thioguanine): 21 µM; Mechanism of inhibition (laccases [4]; listed as thioguanine): competitive mode
26.3 ± 2.4 µM | 32.4 µM | substantial inhibitory activities | Competitive | C[C@H](CS)C(=O)N1CCC[C@H]1C(=O)O [compound 11, captopril] |  |  | inhibition of tyrosinase activity (mushroom tyrosinase [5]): inhibits tyrosinase activity; Ki (A. oryzae laccase [1]; listed as captopril): 26 µM; Mechanism of inhibition (laccases [4]; listed as captopril): competitive mode; inhibition of tyrosinase (words, literature) (mushroom tyrosinase [6]): slightly inhibited
> 1000 µM |  |  |  | O=c1cc(CO)occ1O [compound 12, kojic acid] |  |  | 
18.6 ± 3.3 µM | 18 µM | substantial inhibitory activities | Competitive | OCC(S)CS (stereo not drawn) [compound 18, dimercaptopropanol] | moderate inhibition | 57.9 ± 7.6 µM | Ki (A. oryzae laccase [1]; listed as dimercaptopropanol): 18 µM; Mechanism of inhibition (laccases [4]; listed as dimercaptopropanol): competitive mode
37.3 ± 5.6 µM | 13.1 µM | substantial inhibitory activities | Competitive | O=C(O)C(S)C(S)C(=O)O (stereo not drawn) [compound 19, dimercaptosuccinate] |  |  | Ki (A. oryzae laccase [1]; listed as dimercaptosuccinate): 37 µM; Mechanism of inhibition (laccases [4]; listed as dimercaptosuccinate): competitive mode
